Source: patent publication US20070212339A1, “Use Of At Least One Effector Of Glutathione Metabolism Together With Alpha-Lipoic Acid For The Treatment Of Chronically Obstructive Lung Diseases” (ESPARMA GMBH, priority 2003, published 2007)

Legend:
[1] = tested on: alveolar macrophage cell line CRL 21-92 (NR8383); test: Intracellular thiol content (CMFDA, flow cytofluorimetry) of artificially thiol-depleted alveolar macrophage cell line; format: cell-based; conditions: αLA 10.0 μg/ml alone, TDM
Protocol: (§1) The established normal alveolar macrophage cell line CRL 21-92 (NR8383 [AgC11x3A; NR8383.1]) was used. The cells were taken up in special cell culture media and incubated in a gassing incubator at 37° C., a relative air humidity of 98% and a relative air-CO2 content of 5%. In order to check the influence of the combinations used according to the invention on the thiol status of thiol-deficient alveolar macrophages, these were artificially thiol-depleted. This came about by cultivation in thiol-deficient media (TDM) according to tested methods [Free Radic Biol Med 2000; 29:1160-1165]. Comparative cultures using complete media (RPMT 1640) were used for defining the best possible normal value under culture conditions. The intercellular thiol content at the individual cell level was determined using 5-chloromethylfluorescein diacetate (CMFDA) in flow cytofluorimetry [Cytometry 1994; 15:349-358, Cytometry 1997; 29:76-82]. CMFDA which is primarily non-fluorogenic is here passively absorbed by the cell. Via the chloromethyl residue there is binding to cytoplasmatic thiol groups. After the acetate residues have been split off by unspecific cellular esterases, this complex which is now cell membrane-impermeable becomes fluorogenic at an excitation wavelength of λex=490 nm with an emission wavelength of λem=520 nm. The mean fluorescence intensity of the sample (10,000 cells) is directly proportional to the concentration of the intracellular thiol groups. The expression of membrane-bound thiol groups was also determined by means of flow cytofluorimetry. Chloromethyl tetramethyl rhodamine (CMTMR) was used as the thiol conjugate under conditions of a blocked membrane potential and an inhibited diffusion capacity of the cells, [Exp Hematol 1997; 25(7): 601-607]. The fluorescence intensity of the bound fluorochrome molecules on the cell membrane is here again proportional to the quantity of thiol groups on the cell surface. Immortalised alveolar macrophages were artificially thiol-depleted in the above-described test assembly. The influence of the substances used according to the invention was checked over a period of 96 hours by measuring the intracellular thiol content and the membrane expression of thiols. Immortalised alveolar macrophages were artificially thiol-depleted in the test assembly described in Example 1. The influence of the substances used according to the invention was checked over a period of 96 hours by measuring the intracellular thiol content and the membrane expression of thiols.

[2] = tested on: alveolar macrophage cell line CRL 21-92 (NR8383); test: Membrane-bound thiol expression (CMTMR, flow cytofluorimetry) of artificially thiol-depleted alveolar macrophage cell line; format: cell-based; conditions: αLA 10.0 μg/ml alone, TDM
Protocol: as §1, with “conditions.” for “conditions. The intercellular thiol content at the individual cell level was determined using 5-chloromethylfluorescein diacetate (CMFDA) in flow cytofluorimetry [Cytometry 1994; 15:349-358, Cytometry 1997; 29:76-82]. CMFDA which is primarily non-fluorogenic is here passively absorbed by the cell. Via the chloromethyl residue there is binding to cytoplasmatic thiol groups. After the acetate residues have been split off by unspecific cellular esterases, this complex which is now cell membrane-impermeable becomes fluorogenic at an excitation wavelength of λex=490 nm with an emission wavelength of λem=520 nm. The mean fluorescence intensity of the sample (10,000 cells) is directly proportional to the concentration of the intracellular thiol groups.”

[3] = tested on: primary alveolar macrophages of COPD patients; test: Cellular thiol status (CMFDA) of primary alveolar macrophages of COPD patients; format: cell-based, human; conditions: for Thiols, intracellular (CMFDA)[%]: RPMI1640
Protocol: The intercellular thiol content at the individual cell level was determined using 5-chloromethylfluorescein diacetate (CMFDA) in flow cytofluorimetry [Cytometry 1994; 15:349-358, Cytometry 1997; 29:76-82]. CMFDA which is primarily non-fluorogenic is here passively absorbed by the cell. Via the chloromethyl residue there is binding to cytoplasmatic thiol groups. After the acetate residues have been split off by unspecific cellular esterases, this complex which is now cell membrane-impermeable becomes fluorogenic at an excitation wavelength of λex=490 nm with an emission wavelength of λem=520 nm. The mean fluorescence intensity of the sample (10,000 cells) is directly proportional to the concentration of the intracellular thiol groups. Alveolar macrophages were isolated from the bronchoalveolar lavage fluid of COPD patients, taken up in cell culture medium and incubated in a gassing incubator at 37° C., a relative air humidity of 98% and a relative air-CO2 content of 7.5%. In order to check the influence of the combinations used according to the invention on the thiol status of the […] macrophages, in each case one fraction was treated with α-lipoic acid, the effector of glutathione metabolism ambroxol or with the combination of α-lipoic acid/ambroxol, whilst another fraction was used in each case as an untreated control. Untreated alveolar macrophages from healthy, non-COPD patients served as the normal comparison. The cellular thiol status was determined by means of the measuring method described under 1. The effect of the combination of α-lipoic acid and ambroxol in time kinetics over 96 hours in relation to healthy cells is shown in Table 5. In a test assembly identical to that of Example 3, alveolar macrophages from COPD patients were in each case treated with α-lipoic acid, the effector silibinin or with the combination of α-lipoic acid/silibinin, whilst another fraction was again used in each case as an untreated control. Untreated alveolar macrophages from healthy, non-COPD patients served here, too, as the normal comparison. The cellular thiol status was determined by means of the measuring method described under 1. The effect of the combination of α-lipoic acid and silibinin in time kinetics over 96 hours in relation to healthy cells is shown in Table 6.

[4] = tested on: primary alveolar macrophages of COPD patients; test: Phagocytosis rate of primary alveolar macrophages of COPD patients (cytofluorimetric test with opsonized fluorochrome-marked bacteria); format: cell-based, human; conditions: for Phagoburst (mfi) [%]: RPMI1640; for phagocytosis rate: monosubstances, by comparison with the untreated control
Protocol: In a similar procedure to the one described in Example 3, alveolar macrophages were isolated and cultivated ex vivo. The phagocytosis efficiency was determined by a cytofluorimetric test at the single-cell level. The macrophages were co-cultivated with opsonized and fluorochrome-marked bacteria. The amount of bacteria absorbed in a defined period of time was assessed quantitatively via the fluorescence intensity in the macrophages and counted as the measurement for their capacity for phagocytosis. The influence of the combinations used according to the invention on the capacity of the […] macrophages for phagocytosis after a treatment period of up to 96 hours is shown in Table 7.

With O=C(O)CCCCC1CCSS1 (stereo not drawn) [αLA, α-lipoic acid] the “Thiols, intracellular (CMFDA)[%]” value ([1]; Table 1, 24 h) was 70.2 ± 8.4%, the “Thiols, intracellular (CMFDA)[%]” value ([1]; Table 1, 48 h) was 58.9 ± 10.4% and the “Thiols, intracellular (CMFDA)[%]” value ([1]; Table 1, 72 h) was 78.1 ± 30.0%. For the same compound, the “Thiols, intracellular (CMFDA)[%]” value ([1]; Table 1, 96 h) was 72.5 ± 19.1%, the “Thiols, intracellular (CMFDA)[%]” value ([1]; Table 3, 24 h) was 69.2 ± 28.2% and the “Thiols, intracellular (CMFDA)[%]” value ([1]; Table 3, 48 h) was 91.1 ± 16.6%. The “Thiols, intracellular (CMFDA)[%]” value ([1]; Table 3, 72 h) was 88.6 ± 26.2%, the “Thiols, intracellular (CMFDA)[%]” value ([1]; Table 3, 96 h) was 114.8 ± 33.2% and the “Thiols, in membrane (CMTMR)[%]” value ([2]; Table 2, 24 h) was 91.1 ± 66.3%. The “Thiols, in membrane (CMTMR)[%]” value ([2]; Table 2, 48 h) was 165.5 ± 36.3%, the “Thiols, in membrane (CMTMR)[%]” value ([2]; Table 2, 72 h) was 82.3 ± 42.1% and the “Thiols, in membrane (CMTMR)[%]” value ([2]; Table 2, 96 h) was 118.9 ± 76.6%. For the same compound, the “Thiols, in membrane (CMTMR)[%]” value ([2]; Table 4, 24 h) was 108.8 ± 38.2%, the “Thiols, in membrane (CMTMR)[%]” value ([2]; Table 4, 48 h) was 126.2 ± 68.6% and the “Thiols, in membrane (CMTMR)[%]” value ([2]; Table 4, 72 h) was 90.7 ± 28.1%. The “Thiols, in membrane (CMTMR)[%]” value ([2]; Table 4, 96 h) was 107.3 ± 57.4%, the cellular thiol expression ([3]; Example 3, monosubstances) was “no effect” and the cellular thiol expression ([3]; Example 4, monosubstances) was “no modulation”. For the same compound, the “Thiols, intracellular (CMFDA)[%]” value ([3]; Table 5, 24 h, αLA 10.0 μg/ml alone) was 60.3 ± 21.0%, the “Thiols, intracellular (CMFDA)[%]” value ([3]; Table 5, 48 h, αLA 10.0 μg/ml alone) was 58.0 ± 17.0% and the “Thiols, intracellular (CMFDA)[%]” value ([3]; Table 5, 72 h, αLA 10.0 μg/ml alone) was 46.2 ± 19.8%. For the same compound, the “Thiols, intracellular (CMFDA)[%]” value ([3]; Table 5, 96 h, αLA 10.0 μg/ml alone) was 62.4 ± 6.3%, the “Thiols, intracellular (CMFDA)[%]” value ([3]; Table 6, 24 h, αLA 10.0 μg/ml alone) was 60.3 ± 21.0% and the “Thiols, intracellular (CMFDA)[%]” value ([3]; Table 6, 48 h, αLA 10.0 μg/ml alone) was 58.0 ± 68.6%. For the same compound, the “Thiols, intracellular (CMFDA)[%]” value ([3]; Table 6, 72 h, αLA 10.0 μg/ml alone) was 46.2 ± 19.8%, the “Thiols, intracellular (CMFDA)[%]” value ([3]; Table 6, 96 h, αLA 10.0 μg/ml alone) was 62.4 ± 6.3% and the “Phagoburst (mfi) [%]” value ([4]; 24 h, αLA 10.0 μg/ml alone) was 59.0 ± 11.7%. For the same compound, the “Phagoburst (mfi) [%]” value ([4]; 48 h, αLA 10.0 μg/ml alone) was 60.2 ± 12.4%, the “Phagoburst (mfi) [%]” value ([4]; 72 h, αLA 10.0 μg/ml alone) was 50.7 ± 9.0% and the “Phagoburst (mfi) [%]” value ([4]; 96 h, αLA 10.0 μg/ml alone) was 64.9 ± 14.3%. The phagocytosis rate [4] was “had not altered”.
For COc1cc(C2Oc3cc([C@H]4Oc5cc(O)cc(O)c5C(=O)[C@@H]4O)ccc3OC2CO)ccc1O (stereo partly shown) [Silibinin, silibinin], the “Thiols, intracellular (CMFDA)[%]” value ([3]; 24 h, Silibinin 70 μg/ml alone) was 56.1 ± 12.4%, the “Thiols, intracellular (CMFDA)[%]” value ([3]; 48 h, Silibinin 70 μg/ml alone) was 59.0 ± 56.8% and the “Thiols, intracellular (CMFDA)[%]” value ([3]; 72 h, Silibinin 70 μg/ml alone) was 44.7 ± 14.0%. The “Thiols, intracellular (CMFDA)[%]” value ([3]; 96 h, Silibinin 70 μg/ml alone) was 49.4 ± 14.5%, the “Phagoburst (mfi) [%]” value ([4]; 24 h, Silibinin 70.0 μg/ml alone) was 55.1 ± 12.2 % and the “Phagoburst (mfi) [%]” value ([4]; 48 h, Silibinin 70.0 μg/ml alone) was 57.6 ± 8.5%. For the same compound, the “Phagoburst (mfi) [%]” value ([4]; 72 h, Silibinin 70.0 μg/ml alone) was 54.2 ± 13.8% and the “Phagoburst (mfi) [%]” value ([4]; 96 h, Silibinin 70.0 μg/ml alone) was 59.9 ± 21.2%.
Nc1c(Br)cc(Br)cc1CN[C@H]1CC[C@H](O)CC1 [Ambroxol, ambroxol] was tested, and the “Thiols, intracellular (CMFDA)[%]” value ([3]; 24 h, Ambroxol [10.0 μ/ml] alone) was 67.4 ± 16.4%, the “Thiols, intracellular (CMFDA)[%]” value ([3]; 48 h, Ambroxol [10.0 μ/ml] alone) was 61.8 ± 11.5% and the “Thiols, intracellular (CMFDA)[%]” value ([3]; 72 h, Ambroxol [10.0 μ/ml] alone) was 61.6 ± 20.8%. For the same compound, the “Thiols, intracellular (CMFDA)[%]” value ([3]; 96 h, Ambroxol [10.0 μ/ml] alone) was 67.1 ± 8.4%, the cellular thiol expression ([3]; Example 3, monosubstances) was “only a marginal rise” and the “Phagoburst (mfi) [%]” value ([4]; 24 h, Ambroxol 10 μM alone) was 53.3 ± 10.9%. The “Phagoburst (mfi) [%]” value ([4]; 48 h, Ambroxol 10 μM alone) was 59.2 ± 12.4%, the “Phagoburst (mfi) [%]” value ([4]; 72 h, Ambroxol 10 μM alone) was 55.2 ± 19.2% and the “Phagoburst (mfi) [%]” value ([4]; 96 h, Ambroxol 10 μM alone) was 61.9 ± 22.1%. The phagocytosis rate [4] was “had not altered”.
